According to US20050163755A1, “Methods and compositions related to 1-caldesmon” (priority 2003, published 2005):

Key:
Type in all cases: cell-based, avian
DF-1 cells [1] = experiment: Prestress force: constitutive isometric tension on collagen membranes; conditions: 3 μM cytochalasin D
Procedure: Prestress was determined by the measured loss of constitutive isometric tension in response to cytochalasin D. Isometric tension was measured in cultured DF-1 cells inoculated on the surface of polymerized type 1 collagen membranes as described by Bodmer (1997). Isometric tension was simultaneously monitored in 2 separate isometric vectors to account for the presence of anisotropic tension. Constitutive tension was measured in cell-collagen lattices under unloaded conditions. To determine the optimal length-tension relationship during the unloaded state, the collagen gel was stretched with a micromanipulator that was attached to the transducer until a 10 mg increase in force was observed. The gel was progressively unloaded until no further decline in preload was observed. The length (Carson et al., 1989) of the gel was chosen as the no-load state. […] The constitutive tension was defined as the measured loss in tension upon the addition of cytochalasin D.
Since expression of wild-type human 1-CaD stabilizes membrane capacitance, it was next asked whether this enhancement was attributed to a reduction in myosin ATPase activity. […] Constitutive tension was measured under isometric no-load conditions in order to be consistent with the mechanical state at which transcellular resistance was measured. […]

DF-1 cells [2] = experiment: Numerical modeling of transcellular impedance (α, Rb, Cm); conditions: 3 μM cytochalasin D, wild-type DF-1 cells
Text: A numerical analysis was used to calculate specific cell-cell and cell-substrate adhesion and membrane capacitance based on the measured transcellular impedance. The procedure is described in more detail elsewhere for endothelial cells (Moy et al., 2002, Moy et al., 2000), fibroblasts (Giaever and Keese, 1991), and for epithelial cells (Lo et al., 1995). The total impedance across a cell-covered electrode is composed of the impedance created between the ventral surface of the cell and the electrode (related to α and due to cell-matrix adhesion), the impedance created between cells (indicated by Rb and due to cell-cell adhesion), the transcellular impedance created from transcellular current conduction (Zm) and the impedance of a naked electrode (Zn). For these calculations, Zm is inversely related to membrane capacitance (Cm), which is dependent upon membrane convolution, which, in turn, is dependent on the cortical cytoskeleton. The data was expressed as a ratio of the real or imaginary measurement of cell-covered electrode to a naked electrode as a function of current frequency between 25 to 60,000 Hz. A calculated real and imaginary value was generated from the solutions of α, Rb and Cm obtained from a multi-response Levenberg-Maquardt non-linear optimization model of the real, imaginary, real and imaginary (in complex form) and real and imaginary (in magnitude form) data. An error evaluation was calculated using a Chi square analysis of the squared sum of the calculated and the experimental residuals as a function of current frequency. […]
Using a previously reported mathematical model, it was next evaluated whether the difference in 1-CaD-mediated change in transcellular resistance was due to effects on cell-cell, cell-matrix adhesion, membrane capacitance or a combination of all three. […] A calculated resistance and capacitance was generated from iterative solutions of α, Rb and Cm obtained from a multi-response Levenberg-Maquardt non-linear optimization model of the real and/or imaginary data. […]

DF-1 cells [3] = experiment: Transcellular resistance of confluent monolayers on microelectrode (adenovirus system); conditions: 3 μM cytochalasin D vs virus at MOI of 200
Procedure: Quantitative transcellular impedance measurements were acquired in real-time using a previously reported technique of inoculating cultured cells grown on the surface of microelectrodes coated with 100 μg/ml of fibronectin (Moy et al., 2002, Moy et al., 1998, Moy et al., 1996, Moy et al., 2000). A 1-volt, 4000 Hz AC signal was supplied through a 1-M Ω resistor to approximate a constant-current source. Voltage and phase data were measured with a SRS830 lock-in amplifier (Stanford Instruments) and then later stored and processed with a personal computer. The in-phase voltage, proportional to the resistance, and the out-of-phase voltage, proportional to the capacitive reactance, were measured. For most situations, resistance is reported because it is most sensitive to cytoskeletal-membrane properties. […] A uniform number of viable cells (˜650,000 cells per sample), which was determined by the amount of cells that excluded trypan blue, were inoculated on the electrode to control for the effect of cell viability. Transcellular resistance was measured as a fractional change and normalized to the cell resistance of wild-type DF-1 cells. Transcellular resistance was measured at 15 hours for inter-subject comparisons—a time point at which transcellular resistance was at steady state. […]

DF-1 cells [4] = experiment: In vitro wound closure assay to measure cell motility; conditions: mechanical wounding
Procedure: DF-1 cell motility was measured by wounding the cell monolayer and measuring wound closure by monitoring the traversed distance over time. DF-1 cells were plated at 70% confluence on glass cover slips coated with 100 μg/ml of fibronectin. These cells were then transfected with Ad-CaD or Ad-empty and allowed to grow to 100% confluence (2 days post-transfection). A wound was made in the monolayer using a sterile pipette tip with an outer diameter of 300 μm. The same area was captured sequentially at time intervals of 0, 1, 3, and 6 hours under phase contrast microscopy. The migrated distance was assessed at 3 locations that were separated by equal distance. Cell motility was determined as the average velocity for the 3 measurements for each time point. […]
It was next evaluated whether human wild-type 1-CaD expression disturbs cytopathic effects such as wound closure. Cell motility in response to mechanical wounding was measured to address this question. […] Cultured monolayers were subjected to mechanical wounding with a glass pipette and time-lapse images of cell motility were recorded over a period of several hours. Each image was equally divided into 3 regions, and the leading edge of cell migration was measured for each time point. Cell motility for each time point was determined as the average velocity measured for each of 3 regions. […]

DF-1 cells [5] = experiment: Cell viability assay, trypan blue; conditions: 48 hrs, 200 MOI virus or 3 μM cytochalasin D
Procedure: Cultured cells were transfected with Ad-CaD or the controlled virus using a calcium phosphate co-precipitation technique. Cells were washed free of virus and incubated for additional 48 hours in serum containing medium. Transfected cells were exposed to trypan blue dye and the fraction of viable cells was quantitated. Viability of cells transfected with Ad-CaD and controlled virus was compared to the cell viability measured in monolayers exposed to cytochalasin for the same corresponding period.

## C=C1[C@@H](C)[C@H]2[C@H](Cc3ccccc3)NC(=O)[C@]23[C@H](OC(C)=O)/C=C/[C@@](C)(O)C(=O)[C@@H](C)C/C=C/[C@H]3[C@@H]1O [Cytochalasin D]
DF-1 cells [1]
  Constitutive tension: abolished constitutive tension
DF-1 cells [2]
  Cm (membrane capacitance): statistically significant increase in Cm
  Rb (cell-cell adhesion): decrease in α and Rb
  α (cell-matrix adhesion): decrease in α and Rb
DF-1 cells [3]
  Transcellular resistance: greater loss in transcellular resistance than cells transfected with Ad-CaD or controlled virus
DF-1 cells [4]
  Wound repair: completely inhibited wound repair
DF-1 cells [5]
  Cell viability / cell death: decreased cell viability in a statistically significant manner
